Results published in US12077537B2 (Gilead Sciences, Inc., priority 2020, dated 2024).

system: HIV-IIIb; assay: Antiviral assay in MT4 cells; format: cell-based; details: Human immunodeficiency virus 1, MT4, 120 h; MT-4 cells mixed with HIV-IIIb at m.o.i. 0.003; 5 days at 37° C.; CellTiter-Glo luminescence; 50% decrease in signal, a measure of HIV-1 replication
How it was run: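 Compound, tested at ten 3-fold dilutions in quadruplicate in 10% FBS medium, received MT-4 cells pre-mixed 1 hour with HIV-IIIb (m.o.i. 0.003). Protection was read as luminescent cell viability (CellTiter-Glo) after 5 days' culture at 37° C.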

Compared with `Cn1nc(N)c2c(Cl)ccc(-c3cc4sc(NCC(C)(C)O)nc4nc3[C@H](Cc3cc(F)cc(F)c3)NC(=O)Cn3nc(C(F)(F)F)c4c3C(F)(F)[C@@H]3C[C@H]43)c21` [Example 115, N—((S)-1-(6-(3-amino-4-chloro-1-methyl-1H-indazol-7-yl)-2-((2-hydroxy-2-methylpropyl)amino)thiazolo[4,5-b]pyridin-5-yl)-2-(3,5-difluorophenyl)ethyl)-2-((3bS,4aR)-5,5-difluoro-3-(trifluoromethyl)-3b,4,4a,5-tetrahydro-1H-cyclopropa[3,4]cyclopenta[1,2-c]pyrazol-1-yl)acetamide], `Cn1nc(N)c2c(Cl)ccc(-c3cc4sc(NCC(C)(C)O)nc4nc3[C@H](Cc3cc(F)cc(F)c3)NC(=O)Cn3nc(C(F)F)c4c3C(F)(F)[C@@H]3C[C@H]43)c21` [Example 116, N—((S)-1-(6-(3-amino-4-chloro-1-methyl-1H-indazol-7-yl)-2-((2-hydroxy-2-methylpropyl)amino)thiazolo[4,5-b]pyridin-5-yl)-2-(3,5-difluorophenyl)ethyl)-2-((3bS,4aR)-3-(difluoromethyl)-5,5-difluoro-3b,4,4a,5-tetrahydro-1H-cyclopropa[3,4]cyclopenta[1,2-c]pyrazol-1-yl)acetamide] is 2-fold lower in EC50: 7 nM for the first, 3.5 nM for the second.

First: NC(=O)c1cc(-c2nc3nc(C(Cc4cc(F)cc(F)c4)NC(=O)Cn4nc(C(F)(F)F)c5c4C(F)(F)[C@@H]4C[C@H]54)c(-c4ccc(F)c(C(N)=O)c4)cc3s2)ccc1F (stereo partly drawn) [Example 117, 5,5′-(5-(1-(2-((3bS,4aR)-5,5-difluoro-3-(trifluoromethyl)-3b,4,4a,5-tetrahydro-1H-cyclopropa[3,4]cyclopenta[1,2-c]pyrazol-1-yl)acetamido)-2-(3,5-difluorophenyl)ethyl)thiazolo[4,5-b]pyridine-2,6-diyl)bis(2-fluorobenzamide)]
Second: NC(=O)c1cc(-c2cc3sc(-c4ccccc4)nc3nc2[C@H](Cc2cc(F)cc(F)c2)NC(=O)Cn2nc(C(F)(F)F)c3c2C(F)(F)[C@@H]2C[C@H]32)ccc1F [Example 118, 5-(5-((S)-1-(2-((3bS,4aR)-5,5-difluoro-3-(trifluoromethyl)-3b,4,4a,5-tetrahydro-1H-cyclopropa[3,4]cyclopenta[1,2-c]pyrazol-1-yl)acetamido)-2-(3,5-difluorophenyl)ethyl)-2-phenylthiazolo[4,5-b]pyridin-6-yl)-2-fluorobenzamide]
The EC50 of the first is 3.2-fold lower: 93.5 nM for the first, 303 nM for the second. The first is the more potent here.

Compared with `NC(=O)c1nc2nc(C(Cc3cc(F)cc(F)c3)NC(=O)Cn3nc(C(F)(F)F)c4c3C(F)(F)[C@@H]3C[C@H]43)c(-c3ccc(F)c(C(N)=O)c3)cc2s1` (stereo partly drawn) [Example 119, 6-(3-carbamoyl-4-fluorophenyl)-5-(1-(2-((3bS,4aR)-5,5-difluoro-3-(trifluoromethyl)-3b,4,4a,5-tetrahydro-TH-cyclopropa[3,4]cyclopenta[1,2-c]pyrazol-1-yl)acetamido)-2-(3,5-difluorophenyl)ethyl)thiazolo[4,5-b]pyridine-2-carboxamide], `Cn1nc(NS(C)(=O)=O)c2cccc(-c3cc4sc(N5CCC(C)(O)C5)nc4nc3C(Cc3cc(F)cc(F)c3)NC(=O)Cn3nc(C(F)(F)F)c4c3C(F)(F)[C@@H]3C[C@H]43)c21` (stereo partly drawn) [Example 125, 2-((3bS,4aR)-5,5-difluoro-3-(trifluoromethyl)-3b,4,4a,5-tetrahydro-1H-cyclopropa[3,4]cyclopenta[1,2-c]pyrazol-1-yl)-N-(2-(3,5-difluorophenyl)-1-(2-(3-hydroxy-3-methylpyrrolidin-1-yl)-6-(1-methyl-3-(methylsulfonamido)-1H-indazol-7-yl)thiazolo[4,5-b]pyridin-5-yl)ethyl)acetamide] is 4.1-fold lower in EC50: 72 nM for the first, 17.4 nM for the second.

Going from `Cc1c(-c2cc3[nH]c(-c4ccccc4)cc3nc2[C@H](Cc2cc(F)cc(F)c2)NC(=O)Cn2nc(C(F)(F)F)c3c2C(F)(F)[C@@H]2C[C@H]32)ccc2n[nH]c(=O)n12` [Example 120, 2-((3bS,4aR)-5,5-difluoro-3-(trifluoromethyl)-3b,4,4a,5-tetrahydro-1H-cyclopropa[3,4]cyclopenta[1,2-c]pyrazol-1-yl)-N—((S)-2-(3,5-difluorophenyl)-1-(6-(5-methyl-3-oxo-2,3-dihydro-[1,2,4]triazolo[4,3-a]pyridin-6-yl)-2-phenyl-1H-pyrrolo[3,2-b]pyridin-5-yl)ethyl)acetamide] to `Cn1nc(NS(C)(=O)=O)c2cccc(-c3cc4[nH]c(-c5ccccc5)cc4nc3[C@H](Cc3cc(F)cc(F)c3)NC(=O)Cn3nc(C(F)(F)F)c4c3C(F)(F)[C@@H]3C[C@H]43)c21` [Example 121, 2-((3bS,4aR)-5,5-difluoro-3-(trifluoromethyl)-3b,4,4a,5-tetrahydro-1H-cyclopropa[3,4]cyclopenta[1,2-c]pyrazol-1-yl)-N—((S)-2-(3,5-difluorophenyl)-1-(6-(1-methyl-3-(methylsulfonamido)-1H-indazol-7-yl)-2-phenyl-1H-pyrrolo[3,2-b]pyridin-5-yl)ethyl)acetamide], the EC50 falls from 294 nM to 79.6 nM (3.7-fold).

`Cn1nc(NS(C)(=O)=O)c2cccc(-c3cc4[nH]c(-c5ccccc5)cc4nc3[C@H](Cc3cc(F)cc(F)c3)NC(=O)Cn3nc(C(F)F)c4c3C3CC3CC4)c21` (stereo partly drawn) [Example 122, 2-(3-(difluoromethyl)-5,5a,6,6a-tetrahydrocyclopropa[g]indazol-1(4H)-yl)-N—((S)-2-(3,5-difluorophenyl)-1-(6-(1-methyl-3-(methylsulfonamido)-1H-indazol-7-yl)-2-phenyl-1H-pyrrolo[3,2-b]pyridin-5-yl)ethyl)acetamide] and `Cn1cc(-c2nc3nc(C(Cc4cc(F)cc(F)c4)NC(=O)Cn4nc(C(F)(F)F)c5c4C(F)(F)[C@@H]4C[C@H]54)c(-c4cccc5c(NS(C)(=O)=O)nn(C)c45)cc3s2)cn1` (stereo partly drawn) [Example 123, 2-((3bS,4aR)-5,5-difluoro-3-(trifluoromethyl)-3b,4,4a,5-tetrahydro-1H-cyclopropa[3,4]cyclopenta[1,2-c]pyrazol-1-yl)-N-(2-(3,5-difluorophenyl)-1-(2-(1-methyl-1H-pyrazol-4-yl)-6-(1-methyl-3-(methylsulfonamido)-1H-indazol-7-yl)thiazolo[4,5-b]pyridin-5-yl)ethyl)acetamide] are within 1.5-fold of each other in EC50: 12.3 nM for the first, 8.6 nM for the second.

Compared with `Cn1nc(NS(C)(=O)=O)c2cccc(-c3cc4sc(N5CCC(C)(O)CC5)nc4nc3C(Cc3cc(F)cc(F)c3)NC(=O)Cn3nc(C(F)(F)F)c4c3C(F)(F)[C@@H]3C[C@H]43)c21` (stereo partly drawn) [Example 124, 2-((3bS,4aR)-5,5-difluoro-3-(trifluoromethyl)-3b,4,4a,5-tetrahydro-1H-cyclopropa[3,4]cyclopenta[1,2-c]pyrazol-1-yl)-N-(2-(3,5-difluorophenyl)-1-(2-(4-hydroxy-4-methylpiperidin-1-yl)-6-(1-methyl-3-(methylsulfonamido)-1H-indazol-7-yl)thiazolo[4,5-b]pyridin-5-yl)ethyl)acetamide], `Cn1nc(NS(C)(=O)=O)c2cccc(-c3cc4sc(N5CCC(C)(N)CC5)nc4nc3C(Cc3cc(F)cc(F)c3)NC(=O)Cn3nc(C(F)(F)F)c4c3C(F)(F)[C@@H]3C[C@H]43)c21` (stereo partly drawn) [Example 126, N-(1-(2-(4-amino-4-methylpiperidin-1-yl)-6-(1-methyl-3-(methylsulfonamido)-1H-indazol-7-yl)thiazolo[4,5-b]pyridin-5-yl)-2-(3,5-difluorophenyl)ethyl)-2-((3bS,4aR)-5,5-difluoro-3-(trifluoromethyl)-3b,4,4a,5-tetrahydro-TH-cyclopropa[3,4]cyclopenta[1,2-c]pyrazol-1-yl)acetamide] is 2.5-fold higher in EC50: 13.6 nM for the first, 33.8 nM for the second. The first is the more potent here.

First: Cn1nc(NS(C)(=O)=O)c2cccc(-c3cc4sc(N5CCC(C)(C(N)=O)CC5)nc4nc3C(Cc3cc(F)cc(F)c3)NC(=O)Cn3nc(C(F)(F)F)c4c3C(F)(F)[C@@H]3C[C@H]43)c21 (stereo partly drawn) [Example 127, 1-(5-(1-(2-((3bS,4aR)-5,5-difluoro-3-(trifluoromethyl)-3b,4,4a,5-tetrahydro-TH-cyclopropa[3,4]cyclopenta[1,2-c]pyrazol-1-yl)acetamido)-2-(3,5-difluorophenyl)ethyl)-6-(1-methyl-3-(methylsulfonamido)-1H-indazol-7-yl)thiazolo[4,5-b]pyridin-2-yl)-4-methylpiperidine-4-carboxamide]
Second: Cn1nc(NS(C)(=O)=O)c2cccc(-c3cc4sc(NC5CNC(=O)C5)nc4nc3C(Cc3cc(F)cc(F)c3)NC(=O)Cn3nc(C(F)(F)F)c4c3C(F)(F)[C@@H]3C[C@H]43)c21 (stereo partly drawn) [Example 128, 2-((3bS,4aR)-5,5-difluoro-3-(trifluoromethyl)-3b,4,4a,5-tetrahydro-1H-cyclopropa[3,4]cyclopenta[1,2-c]pyrazol-1-yl)-N-(2-(3,5-difluorophenyl)-1-(6-(1-methyl-3-(methylsulfonamido)-1H-indazol-7-yl)-2-((5-oxopyrrolidin-3-yl)amino)thiazolo[4,5-b]pyridin-5-yl)ethyl)acetamide]
The EC50 of the first is 11-fold lower: 31.9 nM for the first, 342 nM for the second.
